The text below walks through data of patent US5073540A, “Composite binding site drugs” (Receptron, priority 1989, dated 1991).

Where a SMILES comes first, the peptide text is derived from it.

What is called EC50 is the concentration that produces a half-maximal response. Higher therefore signals a need for much substance.

The nature of data set [1]: Peptide depletion (degradation or adsorption) during the experimental period, by HPLC and 125I-label. The format is physicochemical. To be noted: HPLC and 125I-labeled peptide; concentrations above 0.1 μM.
Another data set concerns the target T1, purified human IR (Homo sapiens, UniProt P06213).
T1 construct: from tissue; host or cells: human placenta
Put plainly: IR autophosphorylation (tyrosine kinase activity of purified insulin receptor). Type of data set: biochemical. The following applies: for EC50: insulin-induced, 95% confidence intervals printed: K^k 2.2-7.2 μM, D^k 0.3-2.2 μM; for inhibition of basal activity of IR: no insulin added.

T1 sequence (P06213 28-758 limits assumed): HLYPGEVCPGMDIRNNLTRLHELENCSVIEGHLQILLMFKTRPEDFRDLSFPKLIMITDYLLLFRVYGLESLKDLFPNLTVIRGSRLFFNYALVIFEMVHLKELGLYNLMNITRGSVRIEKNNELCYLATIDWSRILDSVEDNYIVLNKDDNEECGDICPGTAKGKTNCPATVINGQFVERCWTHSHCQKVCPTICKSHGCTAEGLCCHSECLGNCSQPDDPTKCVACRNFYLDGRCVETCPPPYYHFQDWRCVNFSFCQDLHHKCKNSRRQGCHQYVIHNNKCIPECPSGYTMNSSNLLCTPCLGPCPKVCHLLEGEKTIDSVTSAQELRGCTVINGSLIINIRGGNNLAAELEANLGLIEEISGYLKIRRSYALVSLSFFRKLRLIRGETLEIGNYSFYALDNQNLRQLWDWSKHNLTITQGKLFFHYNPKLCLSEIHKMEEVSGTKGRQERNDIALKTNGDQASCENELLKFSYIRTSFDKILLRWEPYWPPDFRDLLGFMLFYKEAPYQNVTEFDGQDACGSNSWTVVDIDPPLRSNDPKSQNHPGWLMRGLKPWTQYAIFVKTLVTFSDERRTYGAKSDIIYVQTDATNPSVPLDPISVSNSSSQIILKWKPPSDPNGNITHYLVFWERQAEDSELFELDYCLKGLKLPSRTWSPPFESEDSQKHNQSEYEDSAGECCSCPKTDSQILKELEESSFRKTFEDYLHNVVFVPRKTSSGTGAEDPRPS
T1 sequence (P06213 763-1382 limits assumed): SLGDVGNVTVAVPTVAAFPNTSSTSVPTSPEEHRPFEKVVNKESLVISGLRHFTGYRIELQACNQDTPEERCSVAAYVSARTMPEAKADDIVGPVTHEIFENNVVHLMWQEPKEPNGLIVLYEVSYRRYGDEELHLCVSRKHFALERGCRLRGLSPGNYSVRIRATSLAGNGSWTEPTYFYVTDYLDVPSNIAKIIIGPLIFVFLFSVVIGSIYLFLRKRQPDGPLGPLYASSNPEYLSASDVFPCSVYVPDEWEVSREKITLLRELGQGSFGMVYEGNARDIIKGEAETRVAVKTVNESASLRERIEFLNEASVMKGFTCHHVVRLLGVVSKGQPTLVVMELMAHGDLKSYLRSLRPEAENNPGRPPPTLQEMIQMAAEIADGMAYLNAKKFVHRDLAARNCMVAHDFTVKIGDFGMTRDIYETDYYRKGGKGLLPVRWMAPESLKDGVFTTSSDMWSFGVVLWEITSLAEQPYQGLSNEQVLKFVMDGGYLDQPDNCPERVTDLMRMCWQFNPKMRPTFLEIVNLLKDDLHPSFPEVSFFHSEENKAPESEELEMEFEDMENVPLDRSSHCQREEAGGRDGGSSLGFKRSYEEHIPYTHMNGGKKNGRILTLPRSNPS
Protocol for purified human IR: When peptide was used, it was added in 5.0 μl, the volume adjusted to 20 μl by adding buffer, and the mixture incubated (1 hr, 4° C.). After incubation, 10 μl of a solution containing 2.5 μCi ^32 P-labeled ATP (3,000 Ci/mmol; γ-labeled; Amersham), 50 mM HEPES, pH 7.6, 150 mM NaCl, 0.1% Triton X-100, 37.5 μM unlabeled ATP, 15 mM MgCl2, and 6 MnCl2 was added to a final volume of 30 μl. The mixture was then incubated for 30 min. at 24° C.
After incubation, 15 μl sample buffer was added, and the sample was boiled for 5 min., and run on 10% SDS-PAGE overnight. The gel was dried, and autoradiograms processed with an exposure time of 5-10 hr. For quantitative estimates the β-subunit band of IR and the IRKD bands were cut out and counted dry (Cerenkov) in a scintillation counter.

Consider dynorphin A, for which, in data set [1], the “depletion (degradation or adsorption) during the experimental period” value is given as “No significant depletion”.
As for `CC[C@H](C)[C@H](NC(=O)[C@H](CCC(N)=O)NC(=O)[C@@H](NC(=O)[C@H](CCC(=O)O)NC(=O)[C@H](CCCNC(=N)N)NC(=O)[C@@H](N)CCC(=O)O)[C@@H](C)O)C(=O)N[C@@H](C)C(=O)N[C@@H](CCCCN)C(=O)NCC(=O)N[C@@H](CC(N)=O)C(=O)N[C@@H](CCC(=O)O)C(=O)N[C@@H](CCC(N)=O)C(=O)N[C@@H](CO)C(=O)N[C@@H](Cc1ccccc1)C(=O)N[C@@H](CCCNC(=N)N)C(=O)N[C@H](C(=O)N[C@@H](CC(=O)O)C(=O)N[C@@H](CC(C)C)C(=O)N[C@@H](CCCNC(=N)N)C(=O)N[C@H](C(=O)N[C@@H](CC(C)C)C(=O)N[C@@H](CC(C)C)C(=O)N[C@@H](CCCNC(=N)N)C(=O)N[C@@H](Cc1ccc(O)cc1)C(=O)N[C@@H](Cc1ccc(O)cc1)C(=O)O)[C@@H](C)O)C(C)C` [D^k-(61-85), ERETQIAKGNEQSFRVDLRTLLRYY] (H-ERETQIAKGNEQSFRVDLRTLLRYY-OH), at purified human IR, the EC50 turned out to be 1200 nM and the “inhibition of basal activity of IR” value is reported as 24-40%.
For `CC[C@H](C)[C@H](NC(=O)[C@H](CCC(N)=O)NC(=O)[C@@H](NC(=O)[C@H](CC(N)=O)NC(=O)[C@H](CCCNC(=N)N)NC(=O)[C@@H](N)CCC(=O)O)[C@@H](C)O)C(=O)N[C@@H](C)C(=O)N[C@@H](CCCCN)C(=O)NCC(=O)N[C@@H](CC(N)=O)C(=O)N[C@@H](CCC(=O)O)C(=O)N[C@@H](CCC(N)=O)C(=O)N[C@H](C(=O)N[C@@H](Cc1ccccc1)C(=O)N[C@@H](CCCNC(=N)N)C(=O)N[C@H](C(=O)N[C@@H](CC(N)=O)C(=O)N[C@@H](CC(C)C)C(=O)N[C@@H](CCCNC(=N)N)C(=O)N[C@H](C(=O)N[C@@H](C)C(=O)N[C@@H](CC(C)C)C(=O)N[C@@H](CCCNC(=N)N)C(=O)N[C@@H](Cc1ccc(O)cc1)C(=O)N[C@@H](Cc1ccc(O)cc1)C(=O)O)[C@@H](C)O)C(C)C)[C@@H](C)CC` [K^k-(61-85)] (H-ERNTQIAKGNEQIFRVNLRTALRYY-OH), on purified human IR, the EC50 was found to be 4000 nM and the “inhibition of basal activity of IR” value is 24-40%.
